Target: NAD-dependent protein deacetylase HST2 (Saccharomyces cerevisiae S288c) (UniProt P53686)
Experiment: Ratio of Vmax to Km for Saccharomyces cerevisiae Hst2

Chain of NAD-dependent protein deacetylase HST2 (Saccharomyces cerevisiae S288c) (P53686 whole entry): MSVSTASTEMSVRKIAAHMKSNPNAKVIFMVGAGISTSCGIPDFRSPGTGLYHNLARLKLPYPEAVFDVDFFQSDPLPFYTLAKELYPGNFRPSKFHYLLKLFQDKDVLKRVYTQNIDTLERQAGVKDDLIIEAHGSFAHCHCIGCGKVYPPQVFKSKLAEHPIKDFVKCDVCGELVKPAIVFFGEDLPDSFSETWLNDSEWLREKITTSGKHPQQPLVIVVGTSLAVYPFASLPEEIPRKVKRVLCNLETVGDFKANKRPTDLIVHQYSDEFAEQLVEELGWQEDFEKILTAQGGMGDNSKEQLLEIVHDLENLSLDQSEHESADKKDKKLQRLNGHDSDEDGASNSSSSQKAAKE

Ratio: 7.4 ×10³ /M/s
SMILES: C[C@H](NC(=O)[C@H](CCCCNC(N)=O)NC(=O)CNC(=O)CNC(=O)[C@@H](NC(=O)[C@H](CO)NC(=O)[C@@H](N)CCCCN)[C@@H](C)O)C(=O)N1CCC[C@H]1C(=O)N[C@@H](CCCNC(=N)N)C(=O)N[C@@H](CCCCN)C(=O)N[C@@H](CCC(N)=O)C(=O)O

Source: ChEMBL document CHEMBL1156528, “Acetyl-lysine analog peptides as mechanistic probes of protein deacetylases” (J Biol Chem, 2007)
